Reference: patent US20220282217A1, “COMPOSITIONS AND METHODS FOR PREPARING T CELL COMPOSITIONS AND USES THEREOF” (priority 2019, published 2022)
Like-named read-outs stand apart in the source and are kept apart here. Where a SMILES comes first, the peptide text is derived from it.

Legend:
[1] = molecular target: HLA-A02.01 (Homo sapiens, UniProt P04439, D140Y/D185E/D98H/E176V/E277Q/G131W/G231S/I119V/I121R/I166T/I218V/L300P/L318F/N151K/N90K/P208A/P217A/Q86G/Q94H/R138H/R169H/T345S); assay: Class I MHC peptide binding affinity (displacement of radiolabeled reference peptide)
Outline: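 Steps: form MHCI complexes carrying labeled reference peptide; add competitor peptides at graded doses; incubate 2 days; separate complex-bound from free label by size-exclusion chromatography and count what remains bound.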

[2] = molecular target: T1, HLA-A02.01 (Homo sapiens, UniProt P04439, D140Y/D185E/D98H/E176V/E277Q/G131W/G231S/I119V/I121R/I166T/I218V/N151K/N90K/P208A/P217A/Q86G/Q94H/R138H/R169H); assay: Class I MHC peptide binding stability (pMHC-I dissociation, 125I-labeled light chain); settings: for Stability (T1/2 (h)): allele A02.01; for Measured stability: HLA Allele A02.01, time for half of the complexes to dissociate at 37° C.
T1 construct: made in house; host or cells: E. coli

[3] = allele A02.01, read-out: Observed Affinity (IC50, (nM))
[4] = Observed Affinity (IC50, (nM)), allele A02.01

CC[C@H](C)[C@H](NC(=O)[C@@H](NC(=O)[C@H](CC(C)C)NC(=O)[C@@H](NC(=O)[C@@H]1CCCN1C(=O)[C@H](CCCNC(=N)N)NC(=O)[C@H](Cc1c[nH]c2ccccc12)NC(=O)[C@H](CC(N)=O)NC(=O)[C@H](CCSC)NC(=O)CN)[C@@H](C)CC)[C@@H](C)O)C(=O)O
IC50 [1, 3]: 282 nM
Stability (T1/2 (h)) [2]: 0.5 h

CC[C@H](C)[C@H](NC(=O)[C@H](CC(C)C)NC(=O)[C@H](Cc1c[nH]cn1)NC(=O)[C@@H](NC(=O)[C@H](CO)NC(=O)[C@H](CC(C)C)NC(=O)[C@H](CC(C)C)NC(=O)[C@@H](N)C(C)C)C(C)C)C(=O)N[C@H](C(=O)O)C(C)C (H-VLLSVHLIV-OH; N-terminus and C-terminus assumed)
IC50 [1, 3]: 72 nM
Stability (T1/2 (h)) [2]: 11 h

CC(C)C[C@H](NC(=O)[C@@H](N)CCCCN)C(=O)NCC(=O)NCC(=O)NCC(=O)N[C@@H](CCC(N)=O)C(=O)N[C@@H](Cc1c[nH]cn1)C(=O)NCC(=O)N[C@@H](CCC(=O)O)C(=O)N[C@H](C(=O)O)C(C)C (H-KLGGGQHGEV-OH; N-terminus and C-terminus assumed)
IC50 [1, 4]: 387 nM
Stability (T1/2 (h)) [2]: 0.4 h

CC(C)C[C@H](N)C(=O)N[C@H](C(=O)N[C@H](C(=O)N[C@H](C(=O)NCC(=O)N[C@@H](C)C(=O)N[C@@H](CS)C(=O)NCC(=O)N[C@H](C(=O)O)C(C)C)C(C)C)C(C)C)C(C)C (H-LVVVGACGV-OH; N-terminus and C-terminus assumed)
IC50 ([1]; Measured Affinity (nM), HLA Allele A02.01): 667 nM
IC50 [1, 4]: 1210 nM
Measured stability [2]: 0.6 h
Stability (T1/2 (h)) [2]: 0.6 h

CSCC[C@H](NC(=O)[C@@H](N)CO)C(=O)N[C@@H](CC(C)C)C(=O)N[C@H](C(=O)N[C@@H](CC(=O)O)C(=O)N[C@@H](CO)C(=O)N[C@@H](CC(C)C)C(=O)N[C@@H](Cc1ccccc1)C(=O)N[C@@H](CC(C)C)C(=O)O)[C@@H](C)O (H-SMLTDSLFL-OH; N-terminus and C-terminus assumed)
IC50 [1, 3]: 31 nM
Stability (T1/2 (h)) [2]: 9.8 h

CC[C@H](C)[C@H](NC(=O)[C@H](CC(N)=O)NC(=O)[C@@H](N)CCSC)C(=O)N[C@@H](C)C(=O)N[C@@H](CC(N)=O)C(=O)N[C@@H](CC(C)C)C(=O)N[C@@H](CC(C)C)C(=O)NCC(=O)N[C@@H](C)C(=O)O (H-MNIANLLGA-OH; N-terminus and C-terminus assumed)
IC50 [1, 4]: 128 nM
Stability (T1/2 (h)) [2]: 0.3 h

CC(C)[C@H](N)C(=O)N[C@H](C(=O)N1CCC[C@H]1C(=O)N[C@@H](CS)C(=O)N[C@@H](CCC(=O)O)C(=O)N1CCC[C@H]1C(=O)N1CCC[C@H]1C(=O)N[C@@H](CCC(=O)O)C(=O)N[C@H](C(=O)O)C(C)C)C(C)C
IC50 [1, 3]: 187 nM
Stability (T1/2 (h)) [2]: 0.9 h

CC[C@H](C)[C@H](N)C(=O)N[C@H](C(=O)N[C@H](C(=O)N[C@@H](CCC(=O)O)C(=O)N[C@@H](Cc1ccc(O)cc1)C(=O)N[C@@H](CS)C(=O)N[C@@H](Cc1ccccc1)C(=O)N[C@@H](Cc1ccc(O)cc1)C(=O)NCC(=O)O)[C@@H](C)CC)[C@@H](C)CC (H-IIIEYCFYG-OH; N-terminus and C-terminus assumed)
Stability (T1/2 (h)) [2]: 1.2 h

CC(C)C[C@H](NC(=O)[C@H](CO)NC(=O)[C@H](CS)NC(=O)[C@H](CCC(=O)O)NC(=O)[C@H](Cc1c[nH]c2ccccc12)NC(=O)[C@H](CC(C)C)NC(=O)[C@H](C)NC(=O)[C@H](CC(C)C)NC(=O)[C@@H](N)CC(C)C)C(=O)O
Stability (T1/2 (h)) [2]: 4 h

CC(C)C[C@H](N)C(=O)N[C@H](C(=O)N[C@H](C(=O)N[C@H](C(=O)NCC(=O)N[C@@H](C)C(=O)N[C@H](C(=O)NCC(=O)N[C@H](C(=O)O)C(C)C)C(C)C)C(C)C)C(C)C)C(C)C
Measured stability [2]: 0.6 h
Stability (T1/2 (h)) [2]: 0.6 h
